Experiments:
maize genotype A188 = assay: Regeneration of transgenic plants after stable integration of boost gene constructs including Pat-Tdt; assay type: cell-based; conditions: construct including Pat-Tdt
Excerpt: This strong boost effect on the level of the embryo was also effective to the efficiency of regeneration of whole transgenic plant.

[1] = tested on: maize Hi II immature embryos; assay: Stable transformation frequency of co-delivered tDT report gene without selection; assay type: cell-based; conditions: transient expression, 10 days after co-bombardment
Protocol: Maize embryo preparation, transient bombardment, and embryonic callus induction are described in Examples 1 and 2. The embryos were cultured in N6-5Ag medium at 27° C. in the dark for 14 days. tDT fluorescence was used to monitor embryogenic callus induction and stable transformation by observation under a fluorescent microscope. Specifically, the boost effect was measured by its capability to increase transformation frequency (TF) of the tDT report gene […] after bombardment without a selection.
The strong and uniformed tDT fluorescent signals from the emerging embryonic structures in FIG. 14 indicated integration and stable transformation of tDT gene. Stable transformation frequency is defined as the number of embryos with at least one stable tDT fluorescent structures induced from 100 embryos initially used. Stable transformation frequency was measured 10 days after bombardment.

maize Hi II genotype = assay: Stable transformation of boost gene in Hi II genotype and appearance of the transgenic plants; assay type: in vivo
Excerpt: Stable transformation of ZmPLT7 gene in Hi II genotype was successful.

[2] = tested on: maize A188 immature embryos; assay: Embryogenic structure induction after transient co-bombardment of boost gene constructs; assay type: cell-based; conditions: 1 month after bombardment, co-bombarded with Tdt (FIG. 12)
Protocol: At 9-12 days post pollination, maize ears (i.e. A188 or Hi II) with immature embryos having a size of 0.8 to 1.8 mm, preferably 1.0-1.5 mm, were harvested. The ears were sterilized with 70% ethanol for 10-15 minutes. After brief air drying in a laminar hood, the top ˜⅓ of the kernels were removed from the ears with a shark scalpel, and the immature embryos were pulled out of the kernels carefully with a spatula. The fresh isolated embryos were placed onto the bombardment target area in an osmotic medium plate (see below) with scutellum-side up. The plates were wrapped with parafilm and incubated at 25° C. in the dark for 4 hours before bombardment. […]
After bombardment, the embryos remained on the osmotic medium for another 16 hours. Transient transformation was examined using a fluorescence microscope for the tDT expression at excitation maximum 554 nm and emission maximum 581 nm 16-20 hours after bombardment. The embryos with dense fluorescent signals under a fluorescence microscope (FIG. 9) were selected and transferred from N6OSM onto a N6-5Ag plate (˜15 embryos per plate) with scutellum-face-up for callus induction (see below). […]
The embryos with dense fluorescent signals under a fluorescence microscope (FIG. 9) were selected and transferred from N6OSM onto N6-5Ag for embryonic callus induction. […] Embryogenic callus induction was monitored by observation under a dissection microscope. […]

maize A188 plants = assay: Phenotype of adult plants regenerated from stable transformation of A188; assay type: in vivo; conditions: stable transgenic integration, A188, compared to normal A188 plants (FIG. 13)
maize WUS2 promoter = assay: Maize WUS2 promoter tDT report construct co-bombarded with boost factor; assay type: cell-based; conditions: for activation of maize WUS2 promoter / gene: transient co-bombardment in immature embryos and leaves
Excerpt: Homeobox domain transcriptional factor WUSCHEL (WUS) plays an important role in establishing and maintaining of shoot meristem. To identify boost factors that promote endogenous WUS2 expression, the maize WUSCHEL 2 promoter report construct (pAMK-ZmWUS2-tDT-noT) (SEQ ID NO: 29; FIG. 16) was used to illustrate maize WUS2 promoter activity. The maize WUS2 promoter (pZmWUS2) drove expression of the tDT report gene in this report construct (FIG. 16). The WUS2 promoter report construct was co-bombarded with boost factors individually in maize immature embryos and leaf segments.
Fresh leaf segments of 1-2 cm in length were prepared from the in vitro-cultured maize A188 seedling of 10-14 days old, and placed on the Osmotic medium with abaxial side up for 4 hours. For co-bombardment, two plasmids (100 ng of ZmWUS2 promoter report (FIG. 16) and 100 ng of boost construct, e.g. TaRKD4 (FIG. 5)) were premixed and coated onto 100 μg of gold particles size 0.4 μm. Immature embryo preparation, bombardment, and post-bombardment culturing were carried out as described in Example 1 and Example 2. Red fluorescence showing tDT expression was monitored using a fluorescent microscope started at 16 hours after bombardment.

[3] = A188 leaf segments, after bombardment, co-bombarded with pZmWUS2 report

Row | Substance | efficiency of regeneration of transgenic plants (maize genotype A188) | effect on stable transformation of co-delivered tDT report gene [1] | stable transformation of the boost gene (maize Hi II genotype) | appearance of transgenic plants (maize Hi II genotype; single construct, compared to normal A188 plants (FIG. 15)) | quantification of embryonic structures with Tdt formation per embryo [2] | phenotype of produced transgenic plants (maize A188 plants) | time at which tDT signal peaked (maize WUS2 promoter; [3]) | time at which tDT signal was detected (maize WUS2 promoter; [3]) | tDT red fluorescent signal (maize WUS2 promoter; immature embryos, 44 hours after bombardment, compared to WUS promoter reporter only (weak signals)) | activation of maize WUS2 promoter / gene (maize WUS2 promoter) | activation of maize WUS2 promoter / gene (maize WUS2 promoter; listed as TaRKD4)
1 | ZmPLT7: maize PLT7 gene expression construct driven by strong constitutive Brachypodium EF1 promoter (SEQ ID NO: 27; cDNA SEQ ID NO: 3) | no transgenic plants have been produced successfully | promotes stable transformation frequency | successful | comparable appearance than the normal A188 maize plants | slightly increased amount/development of embryonic structures per embryo | – | – | – | – | – | –
2 | ZmWUS2: maize WUS2 gene expression construct driven by strong constitutive Brachypodium EF1 promoter (SEQ ID NO: 28; cDNA SEQ ID NO: 1) | transgenic plants at a low level of efficiency | – | – | – | slightly increased amount/development of embryonic structures per embryo | without any detrimental phenotype | – | – | – | – | –
3 | wheat RKD4: wheat RKD4 gene, maize-codon optimized, expression construct driven by Brachypodium EF1 promoter (SEQ ID NO: 34) | – | – | – | – | – | – | around 44 hours | around 36 hours | extremely strong red fluorescent signals | strongly activate maize WUS2 genes | activates maize WUS2 promoter
